Data from US6825348B2, “Antiviral compounds” (Academia Sinica, priority 2002, dated 2004).
Values after ≈ are worked out from the molar mass of the structure shown. Like-named read-outs stand apart in the source and are kept apart here.

How the values were obtained:
[1] = target: PRPP synthetase (UniProt P0A717); test: PRPP synthetase reaction, conversion to diphosphates and inhibition of AMP phosphorylation; assay type: biochemical; conditions: compound as substrate of PRPP synthetase
Method: Enzymatic Conversion of Acyclic Nucleoside Phosphonates and Nucleotide 5′-Monophosphate Analog to Their Antivirally Active Diphosphates (Triphosphate Equivalents). Substrate affinities of acyclic nucleoside phosphonates 4, 20, 21, and dinucleotide analog 24 for PRPP synthetase as well as their inhibitory effect against the enzyme were evaluated according to the established procedures. See, e.g., Balzarini et al. (1991) J. Biol. Chem. 266: 8686-8689 and references cited therein. The assays were then terminated after 4 h by the addition of MeOH. HPLC on an anion-exchange Partisphere column was used to analyze the formation of […] 21pp, PMEApp, 4pp, 20pp, and 24pp.

[2] = target: T1, calf mucosal adenosine deaminase (ADA, EC 3.5.4.4) (Bos taurus, UniProt P56658); test: Substrate activity and competitive inhibition of adenosine deaminase; assay type: biochemical
T1 sequence (P56658 1-363): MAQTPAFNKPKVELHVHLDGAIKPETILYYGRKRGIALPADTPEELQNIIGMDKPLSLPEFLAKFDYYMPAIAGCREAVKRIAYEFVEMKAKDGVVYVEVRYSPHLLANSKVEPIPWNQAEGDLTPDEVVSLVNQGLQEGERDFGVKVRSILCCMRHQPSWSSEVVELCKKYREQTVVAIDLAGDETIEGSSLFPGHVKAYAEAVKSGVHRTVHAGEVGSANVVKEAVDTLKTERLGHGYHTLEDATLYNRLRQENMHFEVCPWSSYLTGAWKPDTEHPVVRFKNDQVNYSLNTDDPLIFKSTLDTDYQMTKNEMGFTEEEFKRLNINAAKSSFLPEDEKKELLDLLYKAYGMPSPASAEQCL

[3] = target: HSV thymidine kinase (Human herpesvirus 1, UniProt P0DTH5); test: Phosphorylation of nucleosides by HSV thymidine kinase; assay type: biochemical
Chain of HSV thymidine kinase (P0DTH5 whole entry, looked up): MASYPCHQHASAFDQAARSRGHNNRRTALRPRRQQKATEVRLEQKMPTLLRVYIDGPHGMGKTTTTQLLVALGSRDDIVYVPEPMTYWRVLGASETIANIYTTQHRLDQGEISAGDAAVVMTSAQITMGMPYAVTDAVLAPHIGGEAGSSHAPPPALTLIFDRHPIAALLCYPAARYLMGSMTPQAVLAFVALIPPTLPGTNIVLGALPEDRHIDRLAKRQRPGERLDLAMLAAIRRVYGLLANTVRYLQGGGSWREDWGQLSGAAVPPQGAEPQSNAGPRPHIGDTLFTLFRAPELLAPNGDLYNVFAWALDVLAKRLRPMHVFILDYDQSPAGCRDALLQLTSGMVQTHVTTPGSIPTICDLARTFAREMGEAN

[4] = tested on: Vero cell thymidine kinase; test: Phosphorylation of nucleosides by Vero cell thymidine kinase; assay type: biochemical
[5] = tested on: herpes simplex type 1 virus (HSV-1) (KOS); test: Inhibition of HSV-1 cytopathogenicity in Vero cell culture; assay type: cell-based
[6] = tested on: herpes simplex type 2 virus (HSV-2) (G); test: Inhibition of HSV-2 cytopathogenicity in Vero cell culture; assay type: cell-based; conditions: 50% inhibition of cytopathogenicity, for 1:1 mixtures IC50 refers to known antiviral drugs
[7] = tested on: thymidine kinase-positive (TK+) varicella-zoster virus (YS); test: Inhibition of TK+ VZV cytopathogenicity in Vero cell culture; assay type: cell-based
[8] = tested on: thymidine kinase-deficient (TK−) varicella-zoster virus (YS/R); test: microbe, parasite or virus in culture; assay type: cell-based
[9] = tested on: human cytomegalovirus (AD-169); test: Inhibition of HCMV cytopathogenicity in Vero cell culture; assay type: cell-based; conditions: Vero cell culture, 50% inhibition of cytopathogenicity, for 1:1 mixtures IC50 refers to known antiviral drugs
[10] = tested on: HeLa cells
[11] = tested on: Vero cells
[12] = Lipophilicity, 1-octanol/water partition coefficient
[13] = Solubility in water (phosphate buffer, UV absorbance)
[14] = tested on: HIV-1 (IIIB); test: microbe, parasite or virus in culture; assay type: cell-based; conditions: Human immunodeficiency virus 1, IIIB; MT4 cells, average of duplicates; read-out: IC50 HIV-1 (IIIB)
[15] = tested on: HIV-2 (LAV-2); test: Inhibition of HIV-2 cytopathogenicity in MT4 cells; assay type: cell-based, human immunodeficiency virus; conditions: Human immunodeficiency virus 2; MT4 cells, average of duplicates; read-out: IC50 HIV-2 (LAV-2)
[16] = tested on: moloney murine sarcoma virus (MSV); test: Inhibition of MSV cytopathogenicity in CEM cells (cell-protection assay); assay type: cell-based; conditions: Moloney murine sarcoma virus, CCRF-CEM; CEM cells, average of duplicates; read-out: IC50 MSV
[17] = tested on: HSV-1 (KOS); test: Anti-HSV-1 activity in vivo, HSV-1-induced mortality in NMRI mice; conditions: 6 days; for mean day of animal death / mean day of symptom initiation: terminated day 21; for responders at 100 mg/kg / responders at 150 mg/kg / responders at 250 mg/kg: Human alphaherpesvirus 1, ip, 504 h
[18] = tested on: MSV; conditions: for mean day of animal death / percentage of MSV-infected mice alive at day 21 postinfection / percentage of MSV-infected mice without tumors at day 21 postinfection: two injections; for mean day of tumor initiation: two injections within two days
[19] = tested on: MT4 cells; test: Toxicity toward MT4 cells
[20] = tested on: CEM cells; test: Toxicity toward CEM cells
[21] = LD50 and toxicity in mice, intraperitoneal
[22] = Vero cell culture, 50% inhibition of cytopathogenicity, for 1:1 mixtures IC50 refers to known antiviral drugs

## Nc1ncnc2c1ncn2[C@@H]1O[C@H](COP(=O)(O)O)[C@@H](O)[C@H]1O [AMP 21, adenosine 5′-monophosphate, reference compound]
[1]
  Km: 0.24 mM

## Nc1ncnc2c1ncn2[C@@H]1O[C@H](CO)[C@@H](O)[C@@H]1O [ara A 3, 9-(β-D-arabinofaranosyl)adenine, reference compound]
[2]; compound as ADA substrate, relative to ara A 3 = 1.0
  rel. Vmax: 1.0
[3]
  rel. Vmax, HSV thymidine kinase: <3.0
[3]; mixture with acyclovir 2 (w/w=1:1)
  effect on the rate of phosphorylation of acyclovir 2 in words: did not induce any increase
[4]; apparent Km, 37° C., pH 7.5
  Km: 13 mM
[4]; relative to thymidine = 1.0 × 10^2
  rel. Vmax, Vero cell thymidine kinase: <3.0
[5]; Vero cell culture, 50% inhibition of virus-induced cytopathogenicity, mean of duplicates, for 1:1 (W/W) mixtures IC50 refers to known antiviral drugs
  IC50 HSV-1 (KOS): 8.8 µg/mL (≈ 32.9 µM)
[6]
  IC50 HSV-2 (G): >128 µg/mL
[7]; [22]
  IC50 TK+VZV (YS): >128 µg/mL
[8]; [22]
  IC50 TK−VZV (YS/R): >128 µg/mL
[9]
  IC50 HCMV (AD-169): 27 µg/mL (≈ 101 µM)
[10]
  HeLa cell, concentration causing microscopically visible change or disruption in about 50% of the cell sheet: 73 µg/mL
[11]
  Vero cell, concentration causing microscopically visible change or disruption in about 50% of the cell sheet: 89 µg/mL
[12]; P = [substrate]1-octanol/[substrate]H2O, phosphate buffer 0.10 M
  log P (1-octanol/water): −0.50
[13]; phosphate buffer 0.10 M, pH 6.8, agitated 20 h
  solubility in water: 480 µg/mL (≈ 1800 µM)

## COC1=C(OC)/C(=C/COP(=O)(O)COCCn2cnc3c(N)ncnc32)OC1=O [Compound 28, [1-(Adenin-9-yl-ethoxy)methyl]phosphono-6-yl-(Z)-4-(ethylidene)-2,3-dimethoxy-Δ^a,b-butenolide]
[2]
  ADA substrate / inhibitor property in words: neither a good substrate nor an inhibitor
[5]; Human alphaherpesvirus 1, Vero, read-out: IC50 HSV-1 (KOS)
  IC50: 3.7 µg/mL (≈ 8.38 µM)
[7]
  IC50 TK+VZV (YS): 2.0 µg/mL (≈ 4.53 µM)
[8]; Human alphaherpesvirus 3, Vero, read-out: IC50 TK−VZV (YS/R)
  IC50: 2.4 µg/mL (≈ 5.44 µM)
[9]; Human betaherpesvirus 5, AD169, read-out: IC50 HCMV (AD-169)
  IC50: 5.4 µg/mL (≈ 12.2 µM)
[14]
  IC50: 1.4 µg/mL (≈ 3.17 µM)
[15]
  IC50: 1 µg/mL (≈ 2.27 µM)
[16]
  IC50: 0.93 µg/mL (≈ 2.11 µM)
[17]; 100 mg/kg i.p.
  protection against HSV-induced mortality: same level of protection
[17]; 100 mg/kg/day i.p.
  mean day of animal death: >21 days
  mean day of symptom initiation: >21 days
[17]; 150 mg/kg/day i.p.
  mean day of animal death: >21 days
  mean day of symptom initiation: >21 days
[17]; 250 mg/kg/day i.p.
  mean day of animal death: >21 days
  mean day of symptom initiation: >21 days
[17]; 100 mg/kg/day i.p., read-out: percentage of HSV-1-infected mice alive at day 21 postinfection
  responders at 100 mg/kg: 100%
[17]; 100 mg/kg/day i.p., read-out: percentage of HSV-1-infected mice without symptoms at day 21 postinfection
  responders at 100 mg/kg: 100%
[17]; 150 mg/kg/day i.p., read-out: percentage of HSV-1-infected mice alive at day 21 postinfection
  responders at 150 mg/kg: 100%
[17]; 150 mg/kg/day i.p., read-out: percentage of HSV-1-infected mice without symptoms at day 21 postinfection
  responders at 150 mg/kg: 100%
[17]; 250 mg/kg/day i.p., read-out: percentage of HSV-1-infected mice alive at day 21 postinfection
  responders at 250 mg/kg: 100%
[17]; 250 mg/kg/day i.p., read-out: percentage of HSV-1-infected mice without symptoms at day 21 postinfection
  responders at 250 mg/kg: 100%
[10]; human
  HeLa cell, concentration causing microscopically visible change or disruption in about 50% of the cell sheet: 139 µg/mL
[11]; African green monkey
  Vero cell, concentration causing microscopically visible change or disruption in about 50% of the cell sheet: 170 µg/mL
[18]; 10 mg/kg/day i.p.
  mean day of animal death: 18.9 ± 1.8 days
  percentage of MSV-infected mice alive at day 21 postinfection: (97%)
  mean day of tumor initiation: 14.0 ± 2.1 days
[18]; 20 mg/kg/day i.p.
  mean day of animal death: >21 days
  percentage of MSV-infected mice alive at day 21 postinfection: (100%)
  percentage of MSV-infected mice without tumors at day 21 postinfection: (80%)
  mean day of tumor initiation: 17.9 ± 1.7 days
[18]; 50 mg/kg/day i.p.
  mean day of animal death: >21 days
  percentage of MSV-infected mice alive at day 21 postinfection: (100%)
  percentage of MSV-infected mice without tumors at day 21 postinfection: (95%)
  mean day of tumor initiation: 18.4 ± 1.4 days
[18]; MSV-infected NMRI mice, i.p.
  weight loss in surviving animals: about 2 g
[19]
  MT4 cell, concentration reducing the number of viable uninfected cells by 50%: 265 µg/mL
[20]
  CEM cell, concentration reducing the number of viable uninfected cells by 50%: 280 µg/mL
[21]; NMRI, mouse, in vivo, ip
  LD50: 710 mg/kg
[21]; mice, intraperitoneal
  level up to which no toxicity was shown: 400 mg/kg
[12]; 1-octanol/water (0.10 M phosphate buffer)
  logP at […]: 2.09
[13]; phosphate buffer, pH 6.8, aqueous buffer, thermodynamic from solid
  solubility at 20 h: 7420 µg/mL (≈ 16800 µM)
